Broadly, the IC50 is the concentration that inhibits the measured activity by half.

These results are taken from patent US20250340565A1, “CD73 INHIBITOR COMPOUNDS” (AdoRx Therapeutics Limited, priority 2022, published 2025).

Where a name gives a salt, the structure may show the parent alone.

Assay [1] has as its target human (h)CD73 (amino acids Trp27-Lys547) (Homo sapiens, UniProt P21589). As to the kind of experiment: CD73 inhibition assay (Malachite Green phosphate detection). Particulars: 250 pM hCD73, 12.5 μM AMP, 20 min pre-incubation, absorbance 620 nm. It counts as biochemical. The protocol: Compound inhibition of human (h)CD73 (amino acids Trp27-Lys547, R&D Systems 5795-EN-500) enzymatic activity was tested via the Malachite Green Phosphate Detection Kit (R&D DY996). Experiments were performed in 20 μL Tris buffer (25 mM Tris pH 7.5, 5 mM MgCl2, 0.002% Tween20), with 250 pM of hCD73. Test compounds of interest were prepared in a threefold serial dilution in DMSO and added to the assay to give the appropriate final concentration, with the assay DMSO concentration being 1%. Compounds were pre-incubated for 20 minutes with hCD73 in a 384 well clear plate (Greiner 781101), followed by the addition of adenosine monophosphate (AMP) to 12.5 μM. The enzymatic reaction was carried out for 20 min at room temperature. 5 μL of Malachite kit reagent A was added to stop the reaction (contains 3M H2SO4) and after 10 min, 5 μL of Malachite kit reagent B was added (Malachite Green). After 30 min, absorbance at 620 nm was read on a BMG Pherastar FSX.
Data were normalised to measurements in the absence of competing compound (0% inhibition) and in the presence of 10 μM control compound (100% inhibition).

For assay [2], the target named is CD73 activity in U138-MG cells (Homo sapiens (Human), UniProt P21589). As to the kind of experiment: U138-MG inhibition assay (inorganic phosphate from AMP, PiColorLock Gold). It counts as cell-based. Particulars: 100 μM AMP, 30 min pre-incubation, 1 hour at 37° C. The protocol:
U138-MG cells from ATCC are cultured in DMEM (Gibco 31966) with 10% FBS. Cells are seeded into 96-well culture plates (5,000 cell/well) in 100 μL of media for 24 hr. Cells are washed twice with 200 μL of assay buffer (20 mM HEPES, pH 7.4; 137 mM NaCl; 5.4 mM KCl; 1.3 mM CaCl2; 4.2 mM NaHCO3; 1 mg/mL glucose) to remove residual inorganic phosphate. CD73 inhibitor is added to each well in 100 μl volume and preincubated for 30 mins at 37° C. An equal volume of AMP substrate (Sigma A1572) is added to each well at a final concentration of 100 μM and incubated at 37° C. for 1 hour. Control wells containing cells but lacking added AMP, define the assay signal equivalent to 100% inhibition of CD73 activity. Supernatant is removed for measurement of inorganic phosphate using the PiColorLock Gold kit (Abcam, ab 270004).
The IC50 values of test compounds are determined as the inflection point of the sigmoidal concentration response curve.

Another assay has as its target CD73 in whole blood (Homo sapiens (Human), UniProt P21589). As to the kind of experiment: Whole blood AMP Glo assay. Format: cell-based. Particulars: whole blood of healthy volunteers, 10 μM AMP, 30 min pre-incubation, 15 min at 37° C., levamisole 1.5 mM. The protocol: Blood is drawn from healthy volunteers by venepuncture and anti-coagulated with Lithium Heparin (10 IU/mi). 150 μl of blood is added to U-bottom polypropylene 96-well assay plates pre-filled with 20 μl of compound dilutions prepared in RPMI also containing the Tissue Non-specific Alkaline Phosphatase inhibitor Levamisole (final assay concentration 1.5 mM). Control wells to define uninhibited CD73 contain DMSO in place of compound. Control wells to define complete stabilization of AMP attributable to CD73 contain LY3475070 (CAS: 2375815-63-5) at 30 μM final assay concentration.
Compounds are pre-incubated with whole blood at 37° C. for 30 minutes. Following this, AMP is added in a 30 μl volume for a final assay concentration of 10 μM, mixed, and the plates are incubated for 15 minutes at 37° C. Final DMSO concentration/well is 0.6% and final volume/well is 200 μL. After incubating with AMP, the plates are placed on ice and then centrifuged at 2000 g for 10 minutes at 4° C. Plasma is removed and then diluted 1:10 with pre-chilled HBSS (Ca2+& Mg2+free) and kept on ice.
The stabilized AMP concentration in diluted plasma is measured using AMP-Glo kit (Promega), in parallel with a standard curve of known AMP concentrations, with a final volume of 40 μl in white flat bottom half-well 96-well plates (Corning). Signal is measured by Luminescence. The IC50 values of test compounds are determined as the inflection point of the sigmoidal concentration response curve.

CD73 activity in U138-MG cells, sequence (P21589 27-574): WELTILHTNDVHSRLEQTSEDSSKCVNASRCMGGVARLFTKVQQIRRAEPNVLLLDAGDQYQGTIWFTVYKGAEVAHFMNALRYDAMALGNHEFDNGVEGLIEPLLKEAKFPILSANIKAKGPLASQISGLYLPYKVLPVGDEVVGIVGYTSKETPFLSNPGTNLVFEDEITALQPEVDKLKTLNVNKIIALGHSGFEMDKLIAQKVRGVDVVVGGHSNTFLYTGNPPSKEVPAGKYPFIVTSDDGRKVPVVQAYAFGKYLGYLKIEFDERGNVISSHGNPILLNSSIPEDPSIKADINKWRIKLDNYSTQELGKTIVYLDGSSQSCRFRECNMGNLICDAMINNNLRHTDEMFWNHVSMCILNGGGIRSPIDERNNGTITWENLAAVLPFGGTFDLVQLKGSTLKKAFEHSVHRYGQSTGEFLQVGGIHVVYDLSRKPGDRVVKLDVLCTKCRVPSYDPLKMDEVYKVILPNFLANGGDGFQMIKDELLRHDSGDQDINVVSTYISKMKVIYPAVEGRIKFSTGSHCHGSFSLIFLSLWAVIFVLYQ
CD73 in whole blood, sequence (P21589 27-574): as above

`O=C(OC1CN(c2ncnc3oc(-c4c[nH]c(=O)[nH]c4=O)cc23)CC1(F)F)N1CC2CCC(C1)O2` (stereo not drawn) [Example 22.1, [1-[6-(2,4-Dioxo-1H-pyrimidin-5-yl)furo[2,3-d]pyrimidin-4-yl]-4,4-difluoro-pyrrolidin-3-yl]8-oxa-3-azabicyclo[3.2.1]octane-3-carboxylate]: the IC50 in assay [1] worked out at 152 nM; in assay [2], 61.9 nM; on CD73 in whole blood, 139 nM.
As for `CN1CCOC(COC2CCN(c3ncnc4sc(-c5c[nH]c(=O)[nH]c5=O)cc34)C2)C1` (stereo not drawn) [Example 4.4, 5-[4-[3-[(4-Methylmorpholin-2-yl)methoxy]pyrrolidine-1-yl]thieno[2,3-d]pyrimidin-6-yl]-1H-pyrimidine-2,4-dione], the IC50 stood at 74.3 nM in assay [1], 76.6 nM in assay [2] and 254 nM against CD73 in whole blood.
For `CC1(C)CN(c2ncc(C#N)c3nn(-c4c[nH]c(=O)[nH]c4=O)cc23)CC1(F)F` [Example 29, 4-(3,3-difluoro-4,4-dimethyl-pyrrolidin-1-yl)-2-(2,4-dioxo-1H-pyrimidin-5-yl)pyrazolo[4,3-c]pyridine-7-carbonitrile], the IC50 came to 52 nM in assay [1], 8 nM in assay [2] and 47 nM against CD73 in whole blood.
On to `CC1(C)CCN(c2ncc(Cl)n3nc(-c4c[nH]c(=O)[nH]c4=O)cc23)C1` [Example 25.16, 5-[7-chloro-4-(3,3-dimethylpyrrolidin-1-yl)pyrazolo[1,5-a]pyrazin-2-yl]-1H-pyrimidine-2,4-dione], for which the 50% inhibitory concentration (IC50) in assay [2] was determined as 11 nM; against CD73 in whole blood, 78 nM.
In the case of `O=c1[nH]cc(-c2nc3c(N4CCC(OCCN5CCCCC5)C4)ncnc3[nH]2)c(=O)[nH]1` (stereo not drawn) [Example 15, 5-[6-[3-[2-(1-Piperidyl)ethoxy]pyrrolidin-1-yl]-9H-purin-8-yl]-1H-pyrimidine-2,4-dione], the IC50 in assay [1] turned out to be 139 nM; in assay [2], 65.6 nM; at CD73 in whole blood, 56.5 nM.
For the compound `O=c1[nH]cc(-c2cc3c(N4CCC(OCCN5CCCCC5)C4)ncnc3o2)c(=O)[nH]1` (stereo not drawn) [Example 7, 5-[4-[3-[2-(1-Piperidyl)ethoxy]pyrrolidin-1-yl]furo[2,3-d]pyrimidin-6-yl]-1H-pyrimidine-2,4-dione formate salt], the IC50 is 22.8 nM in assay [1], 7.2 nM in assay [2] and 12.5 nM against CD73 in whole blood.
With `O=c1[nH]cc(-c2cc3c(N4CC(O)C(F)(F)C4)ncc(Cl)n3n2)c(=O)[nH]1` (stereo not drawn) [Example 25.13, 5-[7-Chloro-4-(3,3-difluoro-4-hydroxy-pyrrolidin-1-yl)pyrazolo[1,5-a]pyrazin-2-yl]-1H-pyrimidine-2,4-dione], the IC50 in assay [2] came out at 12 nM; on CD73 in whole blood, 5 nM.
As to `CC1(C)CCN(c2ncnc3nn(-c4c[nH]c(=O)[nH]c4=O)cc23)C1` [Example 13.6, 5-[4-(3,3-Dimethylpyrrolidin-1-yl)pyrazolo[3,4-d]pyrimidin-2-yl]-1H-pyrimidine-2,4-dione], the IC50 amounted to 31.1 nM in assay [1], 8.6 nM in assay [2] and 1.19 nM against CD73 in whole blood.
In the case of `CCC1(CC)CCN(c2ncnc3nn(-c4c[nH]c(=O)[nH]c4=O)cc23)C1` [Example 13.7, 5-[4-(3,3-Diethylpyrrolidin-1-yl)pyrazolo[3,4-d]pyrimidin-2-yl]-1H-pyrimidine-2,4-dione], the values for the IC50 (in assay [1]; in assay [2]; against CD73 in whole blood) were 73.9 nM, 20.9 nM and 7.58 nM, respectively.
Regarding `CC1(C)CN(c2nccc3nn(-c4c[nH]c(=O)[nH]c4=O)cc23)CC1(F)F` [Example 27, 5-[4-(3,3-Difluoro-4,4-dimethyl-pyrrolidin-1-yl)pyrazolo[4,3-c]pyridin-2-yl]-1H-pyrimidine-2,4-dione], the results for the IC50 (in assay [1]; in assay [2]; on CD73 in whole blood) were 65 nM, 20 nM and 16 nM, respectively.
With `CC1(C)CN(c2ncc(F)n3nc(-c4c[nH]c(=O)[nH]c4=O)cc23)CC1(F)F` [Example 25.10, 5-[4-(3,3-difluoro-4,4-dimethyl-pyrrolidin-1-yl)-7-fluoro-pyrazolo[1,5-a]pyrazin-2-yl]-1H-pyrimidine-2,4-dione], the IC50 is 5 nM in assay [2] and 56 nM at CD73 in whole blood.
Turning to `O=c1[nH]cc(-n2cc3c(N4CC(F)(F)C5(CCC5)C4)ncc(F)c3n2)c(=O)[nH]1` [Example 26.1, 5-[4-(8,8-difluoro-6-azaspiro[3.4]octan-6-yl)-7-fluoro-pyrazolo[4,3-c]pyridin-2-yl]-1H-pyrimidine-2,4-dione], the figures for the concentration for half-maximal inhibition (IC50) (in assay [1]; in assay [2]; on CD73 in whole blood) were 22.9 nM, 5 nM and 37 nM, respectively.
In the case of `CC1(C)CN(c2cncc3nn(-c4c[nH]c(=O)[nH]c4=O)cc23)CC1(F)F` [Example 31, 5-[4-(3,3-difluoro-4,4-dimethyl-pyrrolidin-1-yl)pyrazolo[3,4-c]pyridine-2-yl]-1H-pyrimidine-2,4-dione], the IC50 in assay [1] was 20.8 nM; in assay [2] it was 12.3 nM; at CD73 in whole blood, 32 nM.
On to `O=c1[nH]cc(-c2nc3ncnc(N4CCC(OCCN5CCCCC5)C4)c3s2)c(=O)[nH]1` (stereo not drawn) [Example 6, 5-[7-[3-[2-(1-Piperidyl)ethoxy]pyrrolidin-1-yl]thiazolo[4,5-d]pyrimidin-2-yl]-1H-pyrimidine-2,4-dione], for which the IC50 was found to be 57.3 nM in assay [1], 18.7 nM in assay [2] and 27.5 nM against CD73 in whole blood.
For `O=c1[nH]cc(-c2cc3c(N4CC(F)(F)C5(CCCC5)C4)ncnc3o2)c(=O)[nH]1` [Example 19.1, 5-[4-(4,4-Difluoro-2-azaspiro[4.4]nonan-2-yl)furo[2,3-d]pyrimidin-6-yl]-1H-pyrimidine-2,4-dione] the same measures were 96.2 nM, 104 nM and 1990 nM.
Regarding `O=c1[nH]cc(-c2cc3c(N4CCC(OCCN5CCCCC5)C4)ncnn3c2)c(=O)[nH]1` (stereo not drawn) [Example 10, 5-[4-[3-[2-(1-Piperidyl)ethoxy]pyrrolidin-1-yl]pyrrolo[2,1-f][1,2,4]triazin-6-yl]pyrimidine-2,4-diol], the values for the IC50 (in assay [1]; in assay [2]; on CD73 in whole blood) were 20.7 nM, 51.9 nM and 29.6 nM, respectively.
Turning to `O=c1[nH]cc(-n2cc3c(N4CCC5(COC5)C4)ncc(F)c3n2)c(=O)[nH]1` [Example 26.4, 5-[7-fluoro-4-(2-oxa-7-azaspiro[3.4]octan-7-yl)pyrazolo[4,3-c]pyridin-2-yl]-1H-pyrimidine-2,4-dione], the figures for the IC50 (in assay [1]; in assay [2]; against CD73 in whole blood) were 68.2 nM, 17 nM and 69 nM, respectively.
`COC1CN(c2ncc(Cl)n3nc(-c4c[nH]c(=O)[nH]c4=O)cc23)CC1(F)F` (stereo not drawn) [Example 25.14, 5-[7-Chloro-4-(3,3-difluoro-4-methoxy-pyrrolidin-1-yl)pyrazolo[1,5-a]pyrazin-2-yl]-1H-pyrimidine-2,4-dione]: the figures for the IC50 (in assay [2]; on CD73 in whole blood) were 7 nM and 20 nM, respectively.
Turning to `Cc1cnc(N2CC(C)(C)C(F)(F)C2)c2cc(-c3c[nH]c(=O)[nH]c3=O)nn12` [Example 25.11, 5-[4-(3,3-difluoro-4,4-dimethyl-pyrrolidin-1-yl)-7-methyl-pyrazolo[1,5-a]pyrazin-2-yl]-1H-pyrimidine-2,4-dione], the IC50 in assay [2] was 23 nM; at CD73 in whole blood, 200 nM.
On to `CC1(C)CCN(c2ncc(F)n3nc(-c4c[nH]c(=O)[nH]c4=O)cc23)C1` [Example 25.17, 5-[4-(3,3-dimethylpyrrolidin-1-yl)-7-fluoro-pyrazolo[1,5-a]pyrazin-2-yl]-1H-pyrimidine-2,4-dione], for which the results for the IC50 (in assay [2]; on CD73 in whole blood) were 39 nM and 450 nM, respectively.
